What was measured:
[1] = system: wild-type HCT-116 cells; assay: Cell proliferation (MTS), wild-type HCT-116; type: cell-based; conditions: Homo sapiens, 240 h; wild-type HCT-116, 10 days with compound, MTS reading; read-out: IC50 HCT116 WT
Method in brief: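 Wild-type HCT-116 cells were seeded at 100 cells/well in McCoy's 5A/10% FBS. From day 1 they were treated with compound in 3-fold dilutions (initial 20 µM, 8 points) for 10 days at 37° C. Proliferation was read by MTS on day 11, and IC50 was obtained from a four-parameter logistic fit.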

[2] = system: MTAP^-/- HCT-116 cells; assay: Cell proliferation (MTS), MTAP-/- HCT-116; type: cell-based, human; conditions: for Selectivity: HCT116 WT IC50 relative to HCT116 MTAP-/- IC50; for IC50: Homo sapiens, 240 h, MTAP-/- HCT-116, 10 days with compound, MTS reading, read-out: IC50 HCT116 MTAP-/-
Method in brief: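 MTAP-/- (CRISPR/Cas9 biallelic knockout) or wild-type HCT-116 cells seeded at 100 cells/well, treated next day with 8-point 3-fold dilutions (top 20 µM) for 10 days at 37 °C, 5% CO2. Viability read by MTS; IC50 from four-parameter logistic fit of inhibition rate vs log concentration.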

[3] = PK experiment in mice; conditions: female, BALB/c, mouse, plasma, po, 10 mg/kg
Experimental: Experimental materials: the experimental animals were healthy adult female BALB/c mice (provided by Sichuan Vital River Laboratory Animal Technology Co., Ltd.).
Administration mode and sample collection in mice: BALB/c female mice received oral intragastrical administration (10 mg/kg, vehicle: 0.5% methylcellulose/0.2% Tween 80), and 60 µL of whole blood from the venous plexus of the fundus of the mice at different time points was collected at 0.25 h, 0.5 h, 1 h, 2 h, 4 h, 6 h, 8 h, and 24 h after administration and centrifuged at 4000 rpm for 6 min to collect plasma.
10 µL of mouse plasma sample was added to 190 µL of acetonitrile solution containing an internal standard to precipitate protein. The mixture was vortexed for 10 min and centrifuged at 4000 rpm for 10 min. The supernatant was collected and added to a 96-well plate. The samples were analyzed by LC-MS/MS. The drug concentrations in the plasma of mice at different time points after intragastric administration of the example compounds were measured by an LC-MS/MS method, and the related pharmacokinetic parameters were calculated, such that the pharmacokinetic behavior of the compounds in the mice was studied, and the pharmacokinetic characteristics were evaluated.

Row | SMILES | IC50 [1] [nM] | IC50 [2] [nM] | AUC(0-t) [3] [ng·h/mL] | Cmax [3] [ng/mL] | Selectivity [2]
1 | CN(C(=O)c1ccc2nc(N)c3cnn(C)c3c2c1)C1COc2cc(C#Cc3cnn(C(F)F)c3)ccc21 (stereo not drawn) [Compound 30, 4-amino-N-(6-((1-(difluoromethyl)-1H-pyrazol-4-yl)ethynyl)-2,3-dihydrobenzofuran-3-yl)-N,1-dimethyl-1H-pyrazolo[4,3-c]quinoline-8-carboxamide] | 1750 | 8.7 | 12600 ± 1360 | 984 ± 123 | 201
2 | CN(C(=O)c1cc2c3c(c(N)nc2cc1Cl)COC3)[C@@H]1COc2cc(C#Cc3cccnc3F)ccc21 [Compound 61A, (S)-4-amino-7-chloro-N-(6-((2-fluoropyridin-3-yl)ethynyl)-2,3-dihydrobenzofuran-3-yl)-N-methyl-1,3-dihydrofuro[3,4-c]quinoline-8-carboxamide] | 640 | 7 | 22200 ± 2710 | 2080 ± 299 | 91
3 | CN(C(=O)c1cc2c3c(c(N)nc2cc1Cl)COC3)[C@@H]1COc2cc(C#Cc3cccnc3)ccc21 [Compound 70A, (S)-4-amino-7-chloro-N-methyl-N-(6-(pyridin-3-ylethynyl)-2,3-dihydrobenzofuran-3-yl)-1,3-dihydrofuro[3,4-c]quinoline-8-carboxamide] | 475 | 3.6 |  |  | 132
4 | Cc1c(C#Cc2ccc3c(c2)OC[C@H]3N(C)C(=O)c2cc3c4c(c(N)nc3cc2Cl)COC4)cnn1C1CC1 [Compound 71A, (S)-4-amino-7-chloro-N-(6-((1-cyclopropyl-5-methyl-1H-pyrazol-4-yl)ethynyl)-2,3-dihydrobenzofuran-3-yl)-N-methyl-1,3-dihydrofuro[3,4-c]quinoline-8-carboxamide] | 674 | 14 |  |  | 48
5 | CN(C(=O)c1cc2c3c(c(N)nc2cc1Cl)COC3)[C@@H]1COc2cc(C#Cc3cnc4n3CCCC4)ccc21 [Compound 74A, (S)-4-amino-7-chloro-N-methyl-N-(6-((5,6,7,8-tetrahydroimidazo[1,2-a]pyridin-3-yl)ethynyl)-2,3-dihydrobenzofuran-3-yl)-1,3-dihydrofuro [3,4-c] quinoline-8-carb oxamide] | 472 | 2.7 | 14500 ± 1760 | 2810 ± 780 | 175
6 | CN(C(=O)c1cc2c3c(c(N)nc2cc1Cl)COC3)[C@@H]1COc2cc(C#Cc3cnc4n3CCC4)ccc21 [Compound 75A, (S)-4-amino-7-chloro-N-(6-((6,7-dihydro-5H-pyrrolo[1,2-a]imidazol-3-yl)ethynyl) -2,3-dihydrobenzofuran-3-yl)-N-methyl-1,3-dihydrofuro[3,4-c]quinoline-8-carbo xamide] | 424 | 4 | 27000 ± 4260 | 5010 ± 846 | 106
7 | CN(C(=O)c1cc2c3c(c(N)nc2cc1Cl)COC3)[C@@H]1COc2cc(C#Cc3cnc4cnn(C)c4c3)ccc21 [Compound 76A, (S)-4-amino-7-chloro-N-methyl-N-(6-((1-methyl-1H-pyrazolo[4,3-b]pyridin-6-yl)ethynyl)-2,3-dihydrobenzofuran-3-yl)-1,3-dihydrofuro[3,4-c]quinoline-8-carboxamide] | 167 | 3 |  |  | 56
8 | CN(C(=O)c1cc2c3c(c(N)nc2cc1Cl)COC3)[C@@H]1COc2cc(C#Cc3ccnn3C)ccc21 [Compound 78A, (S)-4-amino-7-chloro-N-methyl-N-(6-((1-methyl-1H-pyrazol-5-yl)ethynyl)-2,3-dihydrobenzofuran-3-yl)-1,3-dihydrofuro[3,4-c]quinoline-8-carboxamide] | 512 | 3.9 |  |  | 131
9 | [2H]C([2H])([2H])N(C(=O)c1cc2c(cc1F)nc(N)c1cnn(C)c12)[C@@H]1COc2cc(C#Cc3cnn(C)c3)ccc21 [Compound 79A, (S)-4-amino-7-fluoro-1-methyl-N-(methyl-D3)-N-(6-((1-methyl-1H-pyrazol-4-yl)ethynyl)-2,3-dihydrobenzofuran-3-yl)-1H-pyrazolo[4,3-c]quinoline-8-carboxamide] | 304 | 2 |  |  | 152
10 | CN(C(=O)c1cc2c3c(c(N)nc2cc1F)COC3)[C@@H]1COc2cc(C#Cc3cnc4n3CCCC4)ccc21 [Compound 80A, (S)-4-amino-7-fluoro-N-methyl-N-(6-((5,6,7,8-tetrahydroimidazo[1,2-a]pyridin-3-yl)ethynyl)-2,3-dihydrobenzofuran-3-yl)-1,3-dihydrofuro [3,4-c] quinoline-8-carbo xamide] | 1510 | 6 |  |  | 251
11 | Cc1cn(C)nc1C#Cc1ccc2c(c1)OC[C@H]2N(C)C(=O)c1cc2c(cc1Cl)nc(N)c1cnn(C)c12 [Compound 81A, (S)-4-amino-7-chloro-N-(6-((1,4-dimethyl-1H-pyrazol-3-yl)ethynyl)-2,3-dihydrobenzofuran-3-yl)-N,1-dimethyl-1H-pyrazolo[4,3-c]quinoline-8-carboxamide] | 122 | 2.7 |  |  | 45
12 | Cc1cc2nc(N)c3cnn(C)c3c2cc1C(=O)N(C)[C@@H]1COc2cc(C#Cc3cnn(C(F)F)c3)ccc21 [Compound 83A] | 62 | 1 |  |  | 62
13 | CN(C(=O)c1cc2c(cc1F)nc(N)c1cnn(C)c12)[C@@H]1COc2cc(C#Cc3cnc4n3CCC4)ccc21 [Compound 84A, (S)-4-amino-N-(6-((6,7-dihydro-5H-pyrrolo[1,2-a]imidazol-3-yl)ethynyl)-2,3-dihydrobenzofuran-3-yl)-7-fluoro-N,1-dimethyl-1H-pyrazolo[4,3-c]quinoline-8-carbo xamide] | 143 | 2.6 |  |  | 55
14 | CN(C(=O)c1cc2c(cc1F)nc(N)c1cnn(C)c12)C1COCc2cc(C#Cc3cnn(C4CC4)c3)ccc21 (stereo not drawn) [Compound 85, 4-amino-N-(7-((1-cyclopropyl-1H-pyrazol-4-yl)ethynyl)isochroman-4-yl)-7-fluoro -N,1-dimethyl-1H-pyrazolo[4,3-c]quinoline-8-carboxamide] | 165 | 3 |  |  | 55

More lines, main results first:

Row | IC50 [1] [nM] | IC50 [2] [nM] | AUC(0-t) [3] [ng·h/mL] | Cmax [3] [ng/mL] | SMILES | Selectivity [2]
15 | 504 | 9 |  |  | CN(C(=O)c1cc2c3c(c(N)nc2cc1Cl)COC3)C1COCc2cc(C#Cc3cnn(C4CC4)c3)ccc21 (stereo not drawn) [Compound 87, 4-amino-7-chloro-N-(7-((1-cyclopropyl-1H-pyrazol-4-yl)ethynyl)isochroman-4-yl) -N-methyl-1,3-dihydrofuro[3,4-c]quinoline-8-carboxamide] | 56
16 | 777 | 4.5 |  |  | CN(C(=O)c1cc2c3c(c(N)nc2cc1Cl)COC3)[C@@H]1COc2cc(C#Cc3cnn4c3CCC4)ccc21 [Compound 88A, (S)-4-amino-7-chloro-N-(6-((5,6-dihydro-4H-pyrrolo[1,2-b]pyrazol-3-yl)ethynyl)-2,3-dihydrobenzofuran-3-yl)-N-methyl-1,3-dihydrofuro[3,4-c]quinoline-8-carbox amide] | 173
17 | 263 | 3 |  |  | CN(C(=O)c1cc2c(cc1F)nc(N)c1cnn(C)c12)[C@@H]1COc2cc(C#Cc3cnn(C4CCC4)c3)ccc21 [Compound 89A, (S)-4-amino-N-(6-((1-cyclobutyl-1H-pyrazol-4-yl)ethynyl)-2,3-dihydrobenzofuran-3-yl)-7-fluoro-N,1-dimethyl-1H-pyrazolo [4,3-c] quinoline-8-carboxamide] | 88
18 | 1180 | 12 |  |  | CN(C(=O)c1cc2c3c(c(N)nc2cc1Cl)COC3)[C@@H]1COc2cc(C#Cc3cnn(C4CCC4)c3)ccc21 [Compound 90A, (S)-4-amino-7-chloro-N-(6-((1-cyclobutyl-1H-pyrazol-4-yl)ethynyl)-2,3-dihydrobenzofuran-3-yl)-N-methyl-1,3-dihydrofuro[3,4-c]quinoline-8-carboxamide] | 98
19 |  |  | 5130 ± 2920 | 741 ± 601 | CN(C(=O)c1ccc2nc(N)c3cnn(C)c3c2c1)C1COc2cc(C3CC3)ccc21 (stereo not drawn) [Reference Example 3, reference compound] | 
20 |  |  | 3270 ± 588 | 649 ± 45 | CN(C(=O)c1cc2c3c(c(N)nc2cc1Cl)COC3)[C@@H]1COc2cc(Br)ccc21 [Reference Example 4, reference compound] | 
